The target in assay [1] is XIAP BIR1/2 (Homo sapiens (Human), UniProt P98170). The experiment in a line: XIAP BIR1/2 Ki. It counts as binding. As to conditions: Table B-1.
Assay [2] deals with XIAP BIR3 (Homo sapiens (Human), UniProt P98170). Nature of the assay: XIAP BIR3 Ki. The class given is binding.
In assay [3] the test system is Latently infected Jurkat JLat 10.6 cells. Conditions: HDAC inhibitor in combination with Compound 35, 36 hours, normalized against background of HDAC inhibitor alone.
For assay [4], the target named is ML-IAP (Homo sapiens (Human), UniProt Q96CA5). The experiment in a line: ML-IAP Ki. The class given is binding. Conditions: Table 2-2.
Chain of ML-IAP (Q96CA5 whole entry): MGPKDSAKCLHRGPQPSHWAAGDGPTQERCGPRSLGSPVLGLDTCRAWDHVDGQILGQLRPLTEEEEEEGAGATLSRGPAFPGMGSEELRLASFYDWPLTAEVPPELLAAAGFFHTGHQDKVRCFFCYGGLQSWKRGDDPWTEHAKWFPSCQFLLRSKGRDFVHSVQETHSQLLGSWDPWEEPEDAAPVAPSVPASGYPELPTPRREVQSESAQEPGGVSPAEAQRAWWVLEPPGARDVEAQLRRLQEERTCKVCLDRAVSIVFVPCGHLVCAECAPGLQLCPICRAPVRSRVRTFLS

Chain of XIAP BIR1/2 (P98170 1-240): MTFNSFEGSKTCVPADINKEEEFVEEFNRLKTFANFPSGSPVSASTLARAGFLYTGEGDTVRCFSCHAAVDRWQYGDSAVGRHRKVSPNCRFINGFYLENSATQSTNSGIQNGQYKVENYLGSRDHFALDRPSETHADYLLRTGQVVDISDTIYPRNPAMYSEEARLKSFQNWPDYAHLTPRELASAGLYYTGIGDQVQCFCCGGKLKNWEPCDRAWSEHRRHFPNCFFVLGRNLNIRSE
Chain of XIAP BIR3 (P98170 241-356): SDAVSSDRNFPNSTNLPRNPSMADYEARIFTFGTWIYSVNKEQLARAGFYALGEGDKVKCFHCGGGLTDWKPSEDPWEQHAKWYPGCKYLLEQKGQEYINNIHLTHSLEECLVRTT

By Ki is commonly meant the equilibrium dissociation constant of an inhibitor or competing ligand from its target. Low values mean a stronger hold on the target, high ones a looser hold on the target. Turning to `CN[C@@H](C)C(=O)N[C@H]1CO[C@H]2CCC(C(=O)Nc3ccc(Cl)cc3)N2C1=O` (some centres unmarked) [Compound 8], the Ki in assay [1] was greater than 50 µM; in assay [2] (Table B-1), 25 to 50 µM. As to `CC(=O)Nc1ccc(C(=O)Nc2ccccc2N)cc1` [CI-994, Benzamide, 4-(acetylamino)-N-(2-aminophenyl)-], in assay [3], the “Group: increase of GFP+ cells” value is “A (A 0-25%)”. With Oxamflatin, the “Group: increase of GFP+ cells” value in assay [3] was “C (C 50-75%)”. Turning to `CC(=O)N(C)[C@@H](C)C(=O)N[C@H]1CCCN(C(C)=O)[C@H]2CCC(C(=O)Nc3cccc4ccccc34)N2C1=O` (some centres unmarked) [Compound 18], the Ki is greater than 50 µM in assay [1] and 25 to 50 µM in assay [2] (Table B-1). The like results for `CN[C@@H](C)C(=O)N[C@@H]1C(=O)N2C(C(=O)Nc3cccc4ccccc34)CC[C@@H]2O[C@@H]1C` (some centres unmarked) [Compound 11] were, in that order, greater than 50 µM and 25 to 50 µM.

Regarding `CN[C@@H](C)C(=O)N[C@H]1CCN[C@H]2CCC(C(=O)N[C@@H]3CCCc4ccccc43)N2C1=O` (some centres unmarked) [Compound 29], the Ki in assay [1] and in assay [2] (Table B-1) was greater than 50 µM each time.

`CN[C@@H](C)C(=O)N[C@H]1CO[C@H]2CCC(C(=O)Nc3ccc(OC)cc3)N2C1=O` (some centres unmarked) [Compound 3]: the inhibition constant Ki in assay [2] (Table B-1) was in the range of 25 to 50 µM. With `CN[C@@H](C)C(=O)N[C@H]1CO[C@H]2CCC(C(=O)NC3CCCc4ccccc43)N2C1=O` (some centres unmarked) [Compound 9], the values for the Ki in assay [1] and in assay [2] (Table B-1) were greater than 50 µM and no more than 25 µM, respectively. The like results for `CN[C@@H](C)C(=O)N[C@H]1Cc2ccc(O)cc2[C@H]2CC(C)(C)C(C(=O)N[C@@H]3CCCc4ccccc43)N2C1=O` (some centres unmarked) [Compound 45] were, in that order, no more than 25 µM and no more than 25 µM. The like results for `CN[C@@H](C)C(=O)N[C@H]1CCO[C@H]2CCC(C(=O)n3ccc4ccccc43)N2C1=O` (some centres unmarked) [Compound 22] were, in that order, greater than 50 µM and 25 to 50 µM. `CC(CC1OCCN(Cc2nc(=O)[nH][nH]2)C1c1ccc(F)cc1)c1cc(C(F)(F)F)cc(C(F)(F)F)c1` (centres unmarked) [NKL 22, 3H-1,2,4-Triazol-3-one, 5-[[2-[2-[3,5-bis(trifluoromethyl)phenyl]propyl]-3-(4-fluorophenyl)-4-morpholinyl]methyl]-1,2-dihydro-]: the “Group: increase of GFP+ cells” value in assay [3] is listed as “A (A 0-25%)”.

In the case of `Nc1ccccc1NC(=O)CCCCCCC(=O)Nc1ccccc1` [BML-210, Octanediamide, N1-(2-aminophenyl)-N8-phenyl-], in assay [3], the “Group: increase of GFP+ cells” value is reported as “A (A 0-25%)”.

Turning to `CN[C@@H](C)C(=O)N[C@H]1CCO[C@H]2CC[C@H](C(=O)N[C@@H]3CCOc4ccccc43)N2C1=O` [Compound 39], the Ki in assay [1] was greater than 50 µM; in assay [2] (Table B-1), 25 to 50 µM. For the compound `CN[C@@H](C)C(=O)N[C@H]1CO[C@H]2CCC(C(=O)NCc3ccccc3)N2C1=O` (some centres unmarked) [Compound 6], the Ki in assay [2] (Table B-1) was in the range of 25 to 50 µM. Regarding `CN[C@@H](C)C(=O)N[C@H]1CCS(=O)(=O)[C@H]2CC[C@@H](C(=O)N[C@@H]3CCCc4ccccc43)N2C1=O` [Compound 37], the Ki in assay [1] is greater than 50 µM; in assay [2] (Table B-1), no more than 25 µM.

As for `CN[C@@H](C)C(=O)N[C@H]1CCCNC2CCC(C(=O)NC3CCCc4ccccc43)N2C1=O` (some centres unmarked) [Compound 16], the inhibition constant Ki was 25 to 50 µM in assay [1] and no more than 25 µM in assay [2] (Table B-1). In the case of `CN[C@@H](C)C(=O)N[C@H]1CCN[C@H]2CCC(C(=O)N[C@@H]3CCCc4ccccc43)N2C1=O` (some centres unmarked) [Compound 28], the Ki was greater than 50 µM in assay [1] and 25 to 50 µM in assay [2] (Table B-1). Turning to `CN[C@@H](C)C(=O)N[C@H]1Cc2c([nH]c3ccccc23)[C@H]2CCC(C(=O)N[C@@H]3CCCc4ccccc43)N2C1=O` (some centres unmarked) [Compound 31], the Ki in assay [1] and in assay [2] (Table B-1) was no more than 25 µM throughout. Regarding `CCCC(=O)OCc1ccc(OC(=O)/C=C(C)/C=C/C=C(C)/C=C/C2=C(C)CCCC2(C)C)cc1` [ATRA-BA Hybrid, Retinoic acid, 4-[(1-oxobutoxy)methyl]phenyl ester], the “Group: increase of GFP+ cells” value in assay [3] is “A (A 0-25%)”. On to `CN[C@@H](C)C(=O)N[C@H]1CCCNC2CCC(C(=O)Nc3cccc4ccccc34)N2C1=O` (some centres unmarked) [Compound 17], for which the Ki in assay [1] and in assay [2] (Table B-1) was no more than 25 µM in each case. As to `CCCC(CCC)C(=O)O` [Valproic acid, valproic acid], the “Group: increase of GFP+ cells” value in assay [3] is “A (A 0-25%)”. Same read-out and setting: to `Cc1ccc(C(=O)c2cc(C=CC(=O)NO)n(C)c2)cc1` [MC-1293, 2-Propenamide, N-hydroxy-3-[1-methyl-4-(4-methylbenzoyl)-1H-pyrrol-2-yl]-] belongs “B (B 25-50%)”.

In the case of `CN[C@@H](C)C(=O)N[C@H]1CO[C@H]2CCC(C(=O)Nc3ccc(OC)cc3)N2C1=O` (some centres unmarked) [Compound 4], the values for the Ki in assay [1] and in assay [2] (Table B-1) were greater than 50 µM and 25 to 50 µM, respectively.

As to `O=Nc1ccc(O)c2ncccc12` [NSC-3852, 8-Quinolinol, 5-nitroso-], in assay [3], the “Group: increase of GFP+ cells” value is “B (B 25-50%)”. With `CN[C@@H](C)C(=O)N[C@H]1CO[C@H]2CCC(C(=O)Nc3ccc(OC)cc3)N2C1=O` (some centres unmarked) [Compound 7], the inhibition constant Ki in assay [2] (Table B-1) lay within 25 to 50 µM. Consider `CC(C)C(=O)SCCCCCCC(=O)Nc1nc(-c2ccccc2)cs1` [NCH-51, Propanethioic acid, 2-methyl-, S-[7-oxo-7-[(4-phenyl-2-thiazolyl)amino]heptyl] ester], for which the “Group: increase of GFP+ cells” value in assay [3] is “A (A 0-25%)”. For the compound `O=C(CCCCCCC(=O)NO)NO` [Suberoyl bis-hydroxamic acid], the “Group: increase of GFP+ cells” value in assay [3] is recorded as “B (B 25-50%)”. As for `CN[C@@H](C)C(=O)N[C@H]1CCO[C@H]2CCC(C(=O)n3ccc4ccccc43)N2C1=O` (some centres unmarked) [Compound 23], the Ki in assay [2] (Table B-1) was 25 to 50 µM. `CCC(=O)CCCCC[C@@H]1NC(=O)[C@H]2CCCCN2C(=O)[C@H]([C@@H](C)CC)NC(=O)[C@H](Cc2cn(OC)c3ccccc23)NC1=O` [Apicidin]: in assay [3], the “Group: increase of GFP+ cells” value is “C (C 50-75%)”. On to `CN[C@@H](C)C(=O)N[C@H]1CCO[C@H]2CCC(C(=O)Nc3cccc4ccccc34)N2C1=O` (some centres unmarked) [Compound 13], for which the inhibition constant (Ki) in assay [1] and in assay [2] (Table B-1) was no more than 25 µM throughout.

Take `CN[C@@H](C)C(=O)N[C@H]1CO[C@H]2CCC(C(=O)NCc3ccccc3)N2C1=O` (some centres unmarked) [Compound 5]: the Ki in assay [1] is greater than 50 µM; in assay [2] (Table B-1) it was 25 to 50 µM. As to `CN[C@@H](C)C(=O)N[C@H]1CCS[C@H]2CC(C)(C)C(C(=O)N[C@@H]3CCCc4ccccc43)N2C1=O` (some centres unmarked) [Compound 17c], the Ki in assay [2] (Table 2-2) and in assay [4] was no more than 25 µM in each case. For `O=C(CCCCCCC(=O)Nc1ccc(F)cc1)NO` [p-Fluoro-SAHA], in assay [3], the “Group: increase of GFP+ cells” value is listed as “A (A 0-25%)”. Same read-out and setting: to `CN(C)c1ccc(C(=O)NCCCCCCC(=O)NO)cc1` [Compound M344, Benzamide, 4-(dimethylamino)-N-[7-(hydroxyamino)-7-oxoheptyl]-] belongs “C (C 50-75%)”. In the case of `CN[C@@H](C)C(=O)N[C@@H]1C(=O)N2C(C(=O)NC(c3ccccc3)c3ccccc3)CC[C@@H]2O[C@@H]1C` (some centres unmarked) [Compound 15], the Ki in assay [1] is greater than 50 µM; in assay [2] (Table B-1) it was 25 to 50 µM.

For the compound `CC(C)(C)OC(=O)Nc1ccc(-c2cc(C(=O)NCCCCCCC(=O)NO)no2)cc1` [BML-281, Carbamic acid, N-[4-[3-[[[7-(hydroxyamino)-7-oxoheptyl]amino]carbonyl]-5-isoxazolyl]phenyl]-, 1,1-dimethylethyl ester], the “Group: increase of GFP+ cells” value in assay [3] is “B (B 25-50%)”. For the compound `CC(/C=C/C(=O)NO)=C\[C@@H](C)C(=O)c1ccc(N(C)C)cc1` [Trichostatin A], in assay [3], the “Group: increase of GFP+ cells” value is “C (C 50-75%)”.

Regarding `CN[C@@H](C)C(=O)N[C@H]1CCO[C@H]2CC3(CCCC3)C(C(=O)N[C@@H]3CCCc4ccccc43)N2C1=O` (some centres unmarked) [Compound 43], the inhibition constant Ki in assay [1] and in assay [2] (Table B-1) was no more than 25 µM each time. In the case of `O=C(CCCCCN1C(=O)c2cccc3cccc(c23)C1=O)NO` [Scriptaid], in assay [3], the “Group: increase of GFP+ cells” value is recorded as “C (C 50-75%)”. For the compound `CN[C@@H](C)C(=O)N[C@H]1CCS(=O)(=O)[C@H]2CC[C@H](C(=O)N[C@@H]3CCCc4ccccc43)N2C1=O` [Compound 38], the values for the Ki in assay [1] and in assay [2] (Table B-1) were greater than 50 µM and 25 to 50 µM, respectively. For `CN[C@@H](C)C(=O)N[C@H]1CCS[C@H]2CCCC(C(=O)N[C@@H]3CCCc4ccccc43)N2C1=O` (some centres unmarked) [Compound 41], the Ki in assay [1] and in assay [2] (Table B-1) was no more than 25 µM each time. Take `CC(=O)N(C)[C@@H](C)C(=O)N[C@H]1CCCN(C(C)=O)[C@H]2CCC(C(=O)Nc3cccc4ccccc34)N2C1=O` (some centres unmarked) [Compound 19]: the Ki in assay [2] (Table B-1) lay in the range of 25 to 50 µM.

As for `O=C([O-])CCCc1ccccc1.[Na+]` [Phenylbutyrate•Na, Phenylbutyrate⋅Na], the “Group: increase of GFP+ cells” value in assay [3] is recorded as “A (A 0-25%)”. Same read-out and setting: to `O=C(CCCCCCSc1ccc2ccccc2c1)NO` [HNHA, Heptanamide, N-hydroxy-7-(2-naphthalenylthio)-] belongs “B (B 25-50%)”. `CN[C@@H](C)C(=O)N[C@H]1Cc2c([nH]c3ccccc23)[C@H]2CCC(C(=O)N[C@@H]3CCCc4ccccc43)N2C1=O` (some centres unmarked) [Compound 30]: the inhibition constant (Ki) is greater than 50 µM in assay [1] and 25 to 50 µM in assay [2] (Table B-1). For the compound `CN[C@@H](C)C(=O)N[C@H]1CCCN(C(C)=O)C2CCC(C(=O)NC3CCCc4ccccc43)N2C1=O` (some centres unmarked) [Compound 20], the inhibition constant Ki in assay [1] is greater than 50 µM; in assay [2] (Table B-1), no more than 25 µM. Regarding `Cc1cc(Cl)ccc1OCCCC(=O)NO` [Droxinostat], the “Group: increase of GFP+ cells” value in assay [3] was “B (B 25-50%)”. On to `CN[C@@H](C)C(=O)N[C@H]1CCO[C@H]2CC(C)(C)C(C(=O)Nc3ccccc3SSc3ccccc3NC(=O)C3N4C(=O)[C@@H](NC(=O)[C@H](C)NC)CCO[C@H]4CC3(C)C)N2C1=O` (some centres unmarked) [Compound 40], for which the inhibition constant Ki in assay [1] and in assay [2] (Table B-1) was no more than 25 µM in each case. Take `CN[C@@H](C)C(=O)N[C@H]1CCO[C@H]2CC[C@@H](C(=O)Nc3cccc4ccccc34)N2C1=O` [Compound 25]: the inhibition constant (Ki) in assay [1] and in assay [2] (Table B-1) was no more than 25 µM throughout.

Source of the values: patent US10300074B2, “Use of inhibitor of apoptosis protein (IAP) antagonists in HIV therapy” (Sanford-Burnham Medical Research Institute, priority 2014, dated 2019).
